Test results published in PMC10648349, “Aromatic Diboronic Acids as Effective KPC/AmpC Inhibitors” (Molecules, 2023).
Values after ≈ are worked out from the molar mass of the structure shown. Each block holds one molecule with its values, some of them ahead of it.

What was measured:
[1] = tested on: E. faecalis ATCC 29212; test: direct antimicrobial activity (disc-diffusion, MIC, MBC); type: cell-based; details: Enterococcus faecalis, ATCC29212
Protocol: (§1) Direct antimicrobial activity against Gram-negative and Gram-positive bacterial strains, as well as against yeast, was examined as previously described by the disc-diffusion test, the MIC determination assay, the MBC (for bacteria), and the MFC (for yeasts) determination tests. All the above-mentioned tests were performed according to EUCAST [71, 72] and CLSI [73, 74, 75, 76, 77] recommendations. The following reference agents were used: nitrofurantoin (for Gram-negative rods), linezolid (for Gram-positive bacteria), and fluconazole (in the case of fungi). The new aromatic diboronic acids were dissolved in DMSO (Sigma, St. Louis, MO, USA). In the disc-diffusion test, the concentration of new agents was 0.4 mg per disc.

[2] = tested on: E. faecium ATCC 6057; test: as above; type: cell-based; details: Enterococcus faecium, ATCC6057
Protocol: as §1

[3] = tested on: S. aureus ATCC 43300 MRSA; test: as above; type: cell-based; details: Staphylococcus aureus
Protocol: as §1

[4] = tested on: S. aureus ATCC 6538P; test: as above; type: cell-based; details: Staphylococcus aureus, ATCC6538P
Protocol: as §1

[5] = tested on: S. epidermidis ATCC 12228; test: as above; type: cell-based; details: Staphylococcus epidermidis, ATCC12228
Protocol: as §1

[6] = tested on: C. parapsilosis ATCC 22019; test: antifungal activity (disc-diffusion, MIC, MFC); type: cell-based, Candida parapsilosis; details: Lodderomyces parapsilosis, ATCC22019; fluconazole by Etest
Protocol: as §1

[7] = tested on: C. guilliermondii IBA 155; test: antifungal activity (disc-diffusion, MIC, MFC); type: cell-based, Candida guilliermondii; details: Meyerozyma guilliermondii, IBA155; fluconazole by Etest
Protocol: as §1

[8] = tested on: C. krusei ATCC 6258; test: antifungal activity (disc-diffusion, MIC, MFC); type: cell-based, Candida krusei; details: Pichia kudriavzevii, ATCC6258; fluconazole by Etest
Protocol: as §1

[9] = tested on: C. albicans ATCC 90028; test: antifungal activity (disc-diffusion, MIC, MFC); type: cell-based; details: Candida albicans, ATCC90028; fluconazole by Etest
Protocol: as §1

[10] = tested on: C. tropicalis ATCC 750; test: antifungal activity (disc-diffusion, MIC, MFC); type: cell-based; details: Candida tropicalis, ATCC750; fluconazole by Etest
Protocol: as §1

[11] = tested on: C. tropicalis IBA 171; test: antifungal activity (disc-diffusion, MIC, MFC); type: cell-based; details: Candida tropicalis, IBA171; fluconazole by Etest
Protocol: as §1

[12] = tested on: S. cerevisiae ATCC 9763; test: antifungal activity (disc-diffusion, MIC, MFC); type: cell-based; details: Saccharomyces cerevisiae, ATCC9763; fluconazole by Etest
Protocol: as §1

[13] = tested on: E. coli 76 KPC-2(+); test: MIC of tested agent alone, microdilution; type: cell-based; details: Escherichia coli; read-out: MIC of agent alone
Protocol: (§2) To examine the ability of tested agents to inhibit various carbapenemases and AmpC-enzymes, their synergy with antibiotics against β-lactamase-producing strains was assessed by checkerboard microdilution assay, with slight modification. Checkerboards were prepared in microtiter plates, with seven two-fold dilutions of β-lactams (1–64 mg/L) in the rows and three two-fold dilutions of tested agents and PBA (4–16 mg/L) in the columns. Tested agents’ concentrations were limited to the concentrations at which the newest commercially available BLIs (vaborbactam, relebactam, and avibactam) are used in susceptibility testing. Plates were inoculated and incubated as in the MIC microdilution assay. Parallel, MICs of tested agents and PBA alone were determined by the microdilution assay. Following the incubation, antibiotic MICs in the presence of each agent’s concentration were determined. Moreover, for the first well without growth found in each checkerboard row and column along the growth/non-growth interface, the fractional inhibitory concentration index (FICI) was calculated using the formula below:FICI = [(MIC of antibiotic in combination)/(MIC of antibiotic alone)] + [(MIC of the tested agent in combination)/(MIC of tested agent alone)].

[14] = tested on: E. coli 77 CMY-2(+); test: MIC of tested agent alone, microdilution; type: cell-based; details: Escherichia coli; read-out: MIC of agent alone
Protocol: as §2

[15] = tested on: K. pneumoniae 81 KPC-3(+); test: MIC of tested agent alone, microdilution; type: cell-based; details: Klebsiella pneumoniae; read-out: MIC of agent alone
Protocol: as §2

[16] = tested on: K. pneumoniae 83 KPC-3(+), CTX-M-3(+); test: MIC of tested agent alone, microdilution; type: cell-based; details: Klebsiella pneumoniae; read-out: MIC of agent alone
Protocol: as §2

[17] = tested on: K. pneumoniae ATCC BAA-1705 KPC-2(+); test: MIC of tested agent alone, microdilution; type: cell-based; details: Klebsiella pneumoniae, ATCCBAA1705; read-out: MIC of agent alone
Protocol: as §2

[18] = tested on: P. aeruginosa MUW 700 AmpC(+); test: MIC of tested agent alone, microdilution; type: cell-based; details: Pseudomonas aeruginosa; read-out: MIC of agent alone
Protocol: as §2

[19] = tested on: K. pneumoniae ATCC BAA 1705 KPC-2-positive; test: combination disc test CDT-KPC; type: cell-based; details: Klebsiella pneumoniae, BAA1705; agent 0.3 mg per disc; read-out: Diameter of inhibition zone, MEM-10 disc with agent
[20] = tested on: P. aeruginosa MUW 700 cAmpC-positive; test: combination disc test CDT-AmpC; type: cell-based; details: Pseudomonas aeruginosa; agent 0.3 mg per disc; read-out: Diameter of inhibition zone, CAZ-30 disc with agent
[21] = tested on: E. coli 77 CMY-2-positive; test: combination disc test CDT-AmpC; type: cell-based; details: Escherichia coli; agent 0.3 mg per disc; read-out: Diameter of inhibition zone, CAZ-30 disc with agent
[22] = tested on: K. pneumoniae ATCC 700603 ESBL-positive; test: combination disc test CDT-ESBL; type: cell-based; details: Klebsiella pneumoniae, ATCC700603; agent 0.3 mg per disc; read-out: Diameter of inhibition zone, CAZ-30 disc with agent
[23] = tested on: E. coli 77 CMY-2-positive; test: checkerboard microdilution, antibiotic plus tested agent; type: cell-based, Escherichia coli
Protocol: as §2
(§3) For calculations, all off-scale MICs were converted to the next-highest doubling concentration. Subsequently, both the average and the lowest FICI were interpreted. The interpretation was as follows: FICI ≤ 0.5, synergy; 0.5 < FICI ≤ 4, indifference and FICI > 4, antagonism. Primarily, examined combinations consisted of meropenem (Pol-Aura, Morag, Poland) plus tested agents against carbapenemases-producing strains and ceftazidime (Pol-Aura, Morag, Poland) plus tested agents against AmpC-producing strains. For agents that reduced meropenem MIC at least 4-fold for at least two tested strains, similar assays were performed with imipenem (Pol-Aura, Morag, Poland) and ertapenem (Pol-Aura, Morag, Poland).

[24] = tested on: P. aeruginosa MUW 700 cAmpC-positive; test: as above; type: cell-based, Pseudomonas aeruginosa
Protocol: as §2, §3

[25] = MTT-based viability assay; type: cell-based; details: human, MRC-5 human fibroblasts, 72 h, read-out: Viability of MRC-5 cells (% of viable cells ± SD)
Protocol: MRC-5 human fibroblasts (ECACC) were cultured in MEME, Minimum Essential Medium Eagle (Merck) supplemented with 10% fetal bovine serum (Merck), 2 mM l-glutamine, antibiotics (100 U/mL penicillin, 100 μg/mL streptomycin, Merck) and 1% non-essential amino acids (Merck). Cells were grown in 75 cm^2 cell culture flasks (Sarstedt) in a humidified atmosphere of CO2/air (5/95%) at 37 °C. MTT-based viability assay was conducted as described previously. Optical densities were measured at 570 nm using a BioTek microplate reader. All measurements were carried out in three replicates, and the results were expressed as a percent of viable cells versus control cells.

[26] = tested on: AmpC producers; test: microdilution with ceftazidime; type: cell-based
Protocol: as §2, §3

[27] = tested on: E. coli 76 KPC-2-positive; test: checkerboard microdilution, antibiotic plus tested agent; type: cell-based, Escherichia coli; details: Escherichia coli; read-out: MIC of ertapenem alone
Protocol: as §2, §3

[28] = tested on: K. pneumoniae 81 KPC-3-positive; test: as above; type: cell-based, Klebsiella pneumoniae; details: Klebsiella pneumoniae; read-out: MIC of ertapenem alone
Protocol: as §2, §3

[29] = tested on: K. pneumoniae 83 KPC-3-positive, CTX-M-3-positive; test: as above; type: cell-based, Klebsiella pneumoniae; details: Klebsiella pneumoniae; read-out: MIC of ertapenem alone
Protocol: as §2, §3

[30] = tested on: K. pneumoniae ATCC BAA-1705 KPC-2-positive; test: as above; type: cell-based, Klebsiella pneumoniae; details: Klebsiella pneumoniae, ATCCBAA1705; read-out: MIC of ertapenem alone
Protocol: as §2, §3

[31] = tested on: KPC producers; test: microdilution with carbapenems; type: cell-based; details: strains used in this study
Protocol: as §2, §3

MIC [1]: 200 µg/mL (≈ 928 µM)
MIC [2]: > 400 µg/mL
MIC [3]: > 400 µg/mL
MIC [4]: 400 µg/mL (≈ 1860 µM)
MIC [5]: > 400 µg/mL
MIC [6]: > 400 µg/mL
MIC [7]: > 400 µg/mL
MIC [8]: > 400 µg/mL
MIC [9]: 400 µg/mL (≈ 1860 µM)
MIC [10]: > 400 µg/mL
MIC [11]: > 400 µg/mL
MIC [12]: > 400 µg/mL
MIC [13]: > 400 µg/mL
MIC [14]: > 400 µg/mL
MIC [15]: > 400 µg/mL
MIC [16]: > 400 µg/mL
MIC [17]: > 400 µg/mL
MIC [18]: > 400 µg/mL
ceftazidime MIC reduction, up to ([26]; agent 4 mg/L): ≤ 2 fold
ceftazidime MIC reduction, up to ([26]; agent 8 mg/L): up to 4 fold
ceftazidime MIC reduction, up to ([26]; agent 16 mg/L): ≤ 8 fold
Compound: OB(O)c1cc(B(O)O)c(B(O)O)s1 [5c, thiophene-2,3,5-triboronic acid]
zone of inhibition at 300 µg/disc [19]: 6 mm
zone of inhibition at 300 µg/disc [20]: 21 mm
zone of inhibition at 300 µg/disc [21]: 22 mm
zone of inhibition at 300 µg/disc [22]: 16 mm
Average FICI with ceftazidime [23]: 0.43
The lowest FICI with ceftazidime [23]: 0.27
Average FICI with ceftazidime [24]: 0.43
Interpretation of the average FICI with ceftazidime [24]: S (FICI ≤ 0.5, synergy)
Interpretation of the lowest FICI with ceftazidime [24]: S (FICI ≤ 0.5, synergy)
The lowest FICI with ceftazidime [24]: 0.27
viability at 72 h, 12.5 mg/L ([25]; 12.5 mg/L): 102 ± 3.4%
viability at 72 h, 25 mg/L ([25]; 25 mg/L): 97.9 ± 1.4%
viability at 72 h, 50 mg/L ([25]; 50 mg/L): 85.6 ± 0.7%

Compound: C[C@@H](O)[C@H]1C(=O)N2C(C(=O)O)=C(S[C@@H]3CN[C@H](C(=O)Nc4cccc(C(=O)O)c4)C3)[C@H](C)[C@H]12 [ERT, ertapenem, reference compound]
MIC [27]: 256 µg/mL
MIC [28]: 32 µg/mL
MIC [29]: 64 µg/mL
MIC [30]: 64 µg/mL
MIC range of ertapenem alone [31]: 32 to 256 µg/mL
